In this experiment the test system is MX-1 breast xenograft, intrarenal, nude mice, tumor weight. The experiment in a line: NCI In Vivo Anticancer Drug Screen. Data for tumor model Human Mammary Carcinoma MX-1 Xenograft (intrarenal inoculation) in NU/NU BALB/C (nude) mice. The conditions noted are these: endpoint: mean tumor weight change, higher = larger tumour. In a few lines: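 Antitumor activity is expressed as a T/C ratio. The treated group's tumor size or survival is compared against the vehicle-treated control group in mice bearing transplanted tumors.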

The mark [1] stands for this setting: dose: 50.0 mg/kg/injection, schedule: Q01DX010 (sc), vehicle: saline.

“And” between values parts separate entries of the source, which are not always exact repeats. Equal values may be shown once. Results filed as inconclusive are left out.

With `CCCCCCCC(=O)OCC(=O)[C@]1(O)Cc2c(O)c3c(c(O)c2[C@@H](OC2CC(N)C(O)C(C)O2)C1)C(=O)c1c(OC)cccc1C3=O` (stereo partly drawn), the T/C is 4 % of control (dose: 2.0 mg/kg/injection, schedule: Q01DX010 (ip), vehicle: suspension in saline); 121 % of control (dose: 2.0 mg/kg/injection, schedule: Q01DX010 (sc), vehicle: saline); 53 % of control (dose: 2.0 mg/kg/injection, schedule: Q04DX003 (ip), vehicle: saline); 5 % of control (dose: 4.0 mg/kg/injection, schedule: Q01DX010 (ip), vehicle: suspension in saline); 20 % of control (dose: 4.0 mg/kg/injection, schedule: Q01DX010 (sc), vehicle: saline); 27 % of control (dose: 4.0 mg/kg/injection, schedule: Q04DX003 (ip), vehicle: saline). The T/C (dose: 8.0 mg/kg/injection, schedule: Q01DX010 (sc), vehicle: saline) is 2 % of control and the T/C (dose: 8.0 mg/kg/injection, schedule: Q04DX003 (ip), vehicle: saline) was 5 % of control.
Regarding `Nc1ccc(C(=O)Nc2ccccc2N)cc1`, the T/C runs as follows: (dose: 25.0 mg/kg/injection, schedule: Q01DX010 (ip), vehicle: saline with Tween-80) 91 % of control; (dose: 50.0 mg/kg/injection, schedule: Q01DX010 (ip), vehicle: saline with Tween-80) 87 % of control; (dose: 100.0 mg/kg/injection, schedule: Q01DX010 (ip), vehicle: saline with Tween-80) 84 % of control; (dose: 200.0 mg/kg/injection, schedule: Q01DX010 (ip), vehicle: saline with Tween-80) 36 % of control.
Consider `O=C(O)CC(NC(=O)CP(=O)(O)O)C(=O)O` (stereo not drawn), for which the T/C is, setting by setting: under setting [1], 36 % of control; (dose: 100.0 mg/kg/injection, schedule: Q01DX010 (sc), vehicle: saline) 16 % of control; (dose: 200.0 mg/kg/injection, schedule: Q01DX010 (sc), vehicle: saline) 5 % of control.
As to `CC(=O)O[C@H]1C(=O)[C@@]2(C)C(C(OC(=O)c3ccccc3)[C@]3(O)C[C@H](OC(=O)C(OC(=O)CN(C)C)C(NC(=O)c4ccccc4)c4ccccc4)C(C)=C1C3(C)C)C1(OC(C)=O)COC1C[C@@H]2O` (stereo partly drawn), the T/C by setting is: (dose: 1.88 mg/kg/injection, schedule: Q01DX009 (ip), vehicle: water) 64 % of control; (dose: 3.75 mg/kg/injection, schedule: Q01DX009 (ip), vehicle: water) 5 % of control; (dose: 5.9 mg/kg/injection, schedule: Q01DX009 (ip), vehicle: water) -78 % of control; (dose: 7.5 mg/kg/injection, schedule: Q01DX009 (ip), vehicle: water) 4 % of control; (dose: 8.9 mg/kg/injection, schedule: Q01DX009 (ip), vehicle: water) -53 % of control; (dose: 13.3 mg/kg/injection, schedule: Q01DX009 (ip), vehicle: water) -100 % of control. Moreover, the T/C (dose: 15.0 mg/kg/injection, schedule: Q01DX009 (ip), vehicle: water) is -80 % of control and the T/C (dose: 20.0 mg/kg/injection, schedule: Q01DX009 (ip), vehicle: water) was -100 % of control.
As for `CC[C@]1(O)C[C@H]2CN(CCc3c([nH]c4ccccc34)[C@@](C(=O)OC)(c3cc4c(cc3OC)N(C)[C@H]3[C@@](O)(C(=O)OC)[C@H](OC(C)=O)[C@]5(CC)C=CCN6CC[C@]43[C@@H]65)C2)C1`, the T/C was 43 % of control (dose: 0.25 mg/kg/injection, schedule: Q01DX010 (sc), vehicle: saline) and 18 % of control (dose: 0.5 mg/kg/injection, schedule: Q01DX010 (sc), vehicle: saline).
On to `O=CC(O)C(O)C(O)C(O)CO` (stereo not drawn), for which the T/C runs as follows: (dose: 75.0 mg/kg/injection, schedule: Q04DX003 (ip), vehicle: saline) 72 % of control; (dose: 150.0 mg/kg/injection, schedule: Q04DX003 (ip), vehicle: saline) 113 % of control; (dose: 300.0 mg/kg/injection, schedule: Q04DX003 (ip), vehicle: saline) 65 % of control; (dose: 600.0 mg/kg/injection, schedule: Q04DX003 (ip), vehicle: saline) 93 % of control; (dose: 1200.0 mg/kg/injection, schedule: Q04DX003 (ip), vehicle: saline) 59 % of control.
Take `CC(=O)OCC(=O)[C@@]12OC(C)(C)O[C@@H]1C[C@H]1[C@@H]3CC(C=O)=C4C=C(OCCCl)CC[C@]4(C)[C@@]3(F)[C@@H](O)C[C@@]12C`: the T/C by setting is: (dose: 25.0 mg/kg/injection, schedule: Q04DX003 (sc), vehicle: Klucel (hydroxypropylcellulose) (HPC)) 93 % of control; (dose: 50.0 mg/kg/injection, schedule: Q04DX003 (sc), vehicle: Klucel (hydroxypropylcellulose) (HPC)) 81 % of control; (dose: 100.0 mg/kg/injection, schedule: Q04DX003 (sc), vehicle: Klucel (hydroxypropylcellulose) (HPC)) 71 % of control; (dose: 200.0 mg/kg/injection, schedule: Q04DX003 (sc), vehicle: Klucel (hydroxypropylcellulose) (HPC)) 78 % of control.
On to `COc1cccc2c1C(=O)c1c(O)c3c(c(O)c1C2=O)CC(O)(C(=O)CO)CC3OC1CC(N)C(O)C(C)O1` (stereo not drawn), for which the T/C is, setting by setting: (dose: 25.0 mg/kg/injection, schedule: Q01DX010 (sc), vehicle: saline) 41 % of control; under setting [1], 22 % of control.
Turning to `CNC(=S)SC1=NS(=O)(=O)c2ccccc2N1`, the T/C runs as follows: (dose: 200.0 mg/kg/injection, schedule: Q04DX003 (ip), vehicle: Klucel (hydroxypropylcellulose) (HPC)) 179 % of control; (dose: 400.0 mg/kg/injection, schedule: Q04DX003 (ip), vehicle: Klucel (hydroxypropylcellulose) (HPC)) 165 % of control.
On to `CCCCCCCC(=O)O[C@H]1[C@H]2[C@@H](CC1(C)C)C(=O)[C@]13O[C@H]1C(=O)[C@]1(CO1)[C@]23C`, for which the T/C (dose: 5.0 mg/kg/injection, schedule: Q04DX003 (ip), vehicle: saline with Tween-80) was 100 % of control; the T/C (dose: 10.0 mg/kg/injection, schedule: Q04DX003 (ip), vehicle: saline with Tween-80) is 96 % of control; the T/C (dose: 20.0 mg/kg/injection, schedule: Q04DX003 (ip), vehicle: saline with Tween-80) is 80 % of control.
For the molecule `CN1CCN(CN2C(=O)C3C4C=CC(C3C2=O)C2C3C(=O)N(CN5CCN(C)CC5)C(=O)C3C42)CC1` (stereo not drawn), the T/C is 98 % of control (dose: 9.3 mg/kg/injection, schedule: Q04DX003 (ip), vehicle: water); 106 % of control (dose: 18.75 mg/kg/injection, schedule: Q04DX003 (ip), vehicle: water); 67 % of control (dose: 25.0 mg/kg/injection, schedule: Q04DX003 (ip), vehicle: water); 83 % of control (dose: 37.5 mg/kg/injection, schedule: Q04DX003 (ip), vehicle: water); 52 % of control (dose: 50.0 mg/kg/injection, schedule: Q04DX003 (ip), vehicle: water); 122 % of control (dose: 75.0 mg/kg/injection, schedule: Q04DX003 (ip), vehicle: other). In addition, the T/C was 72 % of control and 94 % of control (dose: 75.0 mg/kg/injection, schedule: Q04DX003 (ip), vehicle: water); 45 % of control (dose: 100.0 mg/kg/injection, schedule: Q04DX003 (ip), vehicle: water).
Regarding `CC(=O)ON(C(C)=O)c1ccc(C(N)=O)cc1`, the T/C was 52 % of control (dose: 600.0 mg/kg/injection, schedule: Q04DX003 (sc), vehicle: saline with Tween-80) and 98 % of control (dose: 2400.0 mg/kg/injection, schedule: Q04DX003 (sc), vehicle: saline with Tween-80).
Take `C1CC[N-]CC1.C1CC[N-]CC1.C1CC[N-]CC1.[Cl][Rh]([Cl])[Cl]`: the T/C is, setting by setting: (dose: 75.0 mg/kg/injection, schedule: Q04DX003 (sc), vehicle: saline) 90 % of control; (dose: 150.0 mg/kg/injection, schedule: Q04DX003 (sc), vehicle: saline) 90 % of control; (dose: 300.0 mg/kg/injection, schedule: Q04DX003 (sc), vehicle: saline) 75 % of control.
Turning to `CNCCN=c1ccc2c3c1c(O)c1c(O)ccc(=O)c1c3[nH]n2CCNCCO`, the T/C (dose: 1.56 mg/kg/injection, schedule: Q04DX003 (ip), vehicle: water) was 7 % of control and 17 % of control and 26 % of control; the T/C (dose: 3.12 mg/kg/injection, schedule: Q04DX003 (ip), vehicle: water) was 1 % of control and 5 % of control and 8 % of control.
Take `C[C@@](O)(/C=C/[C@H]1CC=CC(=O)O1)[C@@H](C[C@@H](O)\C=C/C=C\C=C\CO)OP(=O)(O)O`: the T/C runs as follows: (dose: 1.5 mg/kg/injection, schedule: Q01DX009 (ip), vehicle: other) 113 % of control; (dose: 6.0 mg/kg/injection, schedule: Q01DX009 (ip), vehicle: other) 57 % of control; (dose: 12.0 mg/kg/injection, schedule: Q01DX009 (ip), vehicle: other) 61 % of control; (dose: 37.5 mg/kg/injection, schedule: Q04DX003 (sc), vehicle: other) 29 % of control.
Take `CCCCOCN(COCCCC)C12CC3CC(CC(C3)C1)C2`: the T/C reads like this: (dose: 100.0 mg/kg/injection, schedule: Q04DX003 (sc), vehicle: saline with Tween-80) 48 % of control; (dose: 200.0 mg/kg/injection, schedule: Q04DX003 (sc), vehicle: saline with Tween-80) 45 % of control; (dose: 400.0 mg/kg/injection, schedule: Q04DX003 (sc), vehicle: saline with Tween-80) 76 % of control.

(Values after PubChem BioAssay AID298 (DTP/NCI, 2004).)
